How the values were obtained:
[1] = target: T1, acyl-CoA:cholesterol acyltransferase (ACAT) (Oryctolagus cuniculus, UniProt G1SFD9); experiment: in vitro ACAT inhibition test (radiolabeled cholesterol oleate formed from radiolabeled oleic acid, rabbit intestinal microsomes); assay type: biochemical; details: inhibition of acylation of cholesterol by oleic acid
T1 construct: a tissue preparation containing rabbit intestinal microsomes; from tissue; host or cells: rabbit intestinal microsomes
T1 sequence (G1SFD9 1-524): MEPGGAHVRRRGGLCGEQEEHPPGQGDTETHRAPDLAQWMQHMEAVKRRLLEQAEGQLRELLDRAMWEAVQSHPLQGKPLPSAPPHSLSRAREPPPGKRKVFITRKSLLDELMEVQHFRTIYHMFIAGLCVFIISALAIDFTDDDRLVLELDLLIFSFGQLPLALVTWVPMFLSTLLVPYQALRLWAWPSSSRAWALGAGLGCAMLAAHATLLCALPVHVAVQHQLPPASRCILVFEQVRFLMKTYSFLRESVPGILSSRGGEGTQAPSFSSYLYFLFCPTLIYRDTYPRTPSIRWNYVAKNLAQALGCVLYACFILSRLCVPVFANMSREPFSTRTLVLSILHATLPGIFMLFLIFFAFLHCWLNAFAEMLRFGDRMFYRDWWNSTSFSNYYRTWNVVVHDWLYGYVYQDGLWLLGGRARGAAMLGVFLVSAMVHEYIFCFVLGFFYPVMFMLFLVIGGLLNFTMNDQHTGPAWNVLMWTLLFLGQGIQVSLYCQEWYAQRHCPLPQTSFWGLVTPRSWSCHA
From the text: As shown by the data presented below in Table 1, the compounds of the present invention are potent inhibitors of the enzyme acyl-CoA:cholesterolacyltransferase (ACAT), and are thus effective in inhibiting the esterification and transport of cholesterol across the intestinal cell wall. The compounds of the present invention are thus useful in pharmaceutical formulations for the treatment of hypercholesterolemia or atherosclerosis. The ability of representative compounds of the present invention to inhibit ACAT was measured using an in vitro test more fully described in Field, F. J. and Salone, R. G., Biochemica et Biophysica 712:557-570 (1982). The test assesses the ability of a test compound to inhibit the acylation of cholesterol by oleic acid by measuring the amount of radio-labeled cholesterol oleate formed from radiolabeled oleic acid in a tissue preparation containing rabbit intestinal microsomes. The data appear in Table 1 where they are expressed as IC50 values; i.e. the concentration of test compound required to inhibit 50% expression of the enzyme.

[2] = PCC in vivo screen, blood total cholesterol in cholesterol-fed rats; details: male Sprague-Dawley rats, diet with 5.5% peanut oil, 1.5% cholesterol, 0.3%-0.5% cholic acid, 0.05% drug in diet, one week
From the text: In one in vivo screen, designated PCC, male Sprague-Dawley rats (approximately 200 g body weight) are randomly divided into groups and provided ad libidum a regular chow diet (Purina No. 5002, Ralston Purina Co., 711 West Fuesser Road, Mascoutah, Ill., 62224, USA), supplemented with 5.5% peanut oil, 1.5% cholesterol, and 0.3%-0.5% cholic acid, together with 0.05% of the test drug which is admixed into the diet. After one week the animals are etherized and a blood sample is taken from the heart and mixed with 0.14% ethylenediamine tetraacetic acid (EDTA) to measure the total cholesterol.

Structure (SMILES) | IC50 [1] [µM] | Blood Cholesterol [2] [mg/dL] | Blood Cholesterol % Change [2] [%]
CCc1cccc(CC)c1NC(=O)NCC(c1ccccc1)c1ccccc1 [Example 3, N-(2,6-Diethylphenyl)-N'-(2,2-diphenylethyl)urea] | 0.091 | 105 | -53
CC(C)c1cccc(C(C)C)c1NC(=O)NCC(c1ccccc1)c1ccccc1 [Example 4, N-[2,6-bis(1-methylethyl)phenyl]-N'-(2,2-diphenylethyl)urea] | 0.024 | 95 | -52
CCc1cccc(CC)c1NC(=O)NC(Cc1ccccc1)c1ccccc1 (stereo not shown) [Example 1, N-(2,6-Diethylphenyl)-N'-(1,2-diphenylethyl)urea] | 0.093 | 147 | -29

The remaining compounds from weak to strong by IC50 [1], led by results:

IC50 [1] [µM] | Structure (SMILES) | Blood Cholesterol [2] [mg/dL] | Blood Cholesterol % Change [2] [%]
0.08 | CCc1cccc(CC)c1NC(=O)NC(c1ccccc1)c1ccccc1 [Example 2, N-(2,6-Diethylphenyl)-N'-(diphenylmethyl)urea] | 127 | -43
0.045 | CC(C)c1cccc(C(C)C)c1NC(=O)NC(c1ccccc1)c1ccccc1 [Example 5, N-[2,6-bis(1-methylethyl)phenyl)-N'-(diphenylmethyl)urea] |  | 

Source: US5116848A, “N-(((2,6-disubstituted)phenyl)-N-diarylalkyl)ureas as antihyperlipidemic and antiatherosclerotic agents” (priority 1988, dated 1992)
